Measurements: US11866720B2, “Transgenic or non-transgenic plants with mutated protoporphyrinogen oxidase having increased tolerance to herbicides” (priority 2013, dated 2024)
Numbering of substitutions follows the chain as printed.

How the values were obtained:
Experiment in all cases: biochemical
[1] = target: T1, recombinant wildtype and mutated PPO (Amaranthus PPO2: PPX2L_WC SEQ ID NO 2, PPX2L_AC SEQ ID NO 4, dG210 SEQ ID NO 6 & 8) (Amaranthus tuberculatus, UniProt Q0NZW9, D133A/F420M/R128T); settings: IC50 (M)
T1 sequence (Q0NZW9 1-534 R128T/D133A/F420M): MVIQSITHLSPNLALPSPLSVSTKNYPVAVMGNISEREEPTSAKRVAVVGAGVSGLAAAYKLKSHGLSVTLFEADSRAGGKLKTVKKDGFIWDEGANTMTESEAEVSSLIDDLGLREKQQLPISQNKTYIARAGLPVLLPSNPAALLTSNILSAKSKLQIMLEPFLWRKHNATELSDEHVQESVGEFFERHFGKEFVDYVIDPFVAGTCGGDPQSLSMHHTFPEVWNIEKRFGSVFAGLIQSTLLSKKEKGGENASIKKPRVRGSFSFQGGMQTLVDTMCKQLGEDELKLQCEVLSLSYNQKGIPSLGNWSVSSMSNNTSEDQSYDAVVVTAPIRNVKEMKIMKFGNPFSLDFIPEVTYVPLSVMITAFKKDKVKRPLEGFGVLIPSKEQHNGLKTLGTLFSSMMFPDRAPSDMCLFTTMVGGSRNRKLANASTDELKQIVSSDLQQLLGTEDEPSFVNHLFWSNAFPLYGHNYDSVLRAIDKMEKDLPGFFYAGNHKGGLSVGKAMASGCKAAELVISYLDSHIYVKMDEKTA

[2] = target: recombinant wildtype and mutated PPO (Amaranthus PPO2: PPX2L_WC SEQ ID NO 2, PPX2L_AC SEQ ID NO 4, dG210 SEQ ID NO 6 & 8) (Amaranthus tuberculatus, UniProt Q0NZW9, D133A/F420M/R128G); settings: IC50 (M)
[3] = target: recombinant wildtype and mutated PPO (Amaranthus PPO2: PPX2L_WC SEQ ID NO 2, PPX2L_AC SEQ ID NO 4, dG210 SEQ ID NO 6 & 8) (Amaranthus tuberculatus, UniProt Q0NZW9, D133A/F420I/R128H); settings: IC50 (M)
[4] = target: T2, recombinant wildtype and mutated PPO (Amaranthus PPO2: PPX2L_WC SEQ ID NO 2, PPX2L_AC SEQ ID NO 4, dG210 SEQ ID NO 6 & 8) (Amaranthus tuberculatus, UniProt Q0NZW9, D133A/F420M/R128I); settings: IC50 (M)
T2 sequence (Q0NZW9 1-534 R128I/D133A/F420M): T1 sequence (Q0NZW9 1-534 R128T/D133A/F420M) with T128I

[5] = target: recombinant wildtype and mutated PPO (Amaranthus PPO2: PPX2L_WC SEQ ID NO 2, PPX2L_AC SEQ ID NO 4, dG210 SEQ ID NO 6 & 8) (Amaranthus tuberculatus, UniProt Q0NZW9, D133A/F420V/R128H); settings: IC50 (M)
[6] = target: T3, recombinant wildtype and mutated PPO (Amaranthus PPO2: PPX2L_WC SEQ ID NO 2, PPX2L_AC SEQ ID NO 4, dG210 SEQ ID NO 6 & 8) (Amaranthus tuberculatus, UniProt Q0NZW9, R128A/F420L, form not given)
T3 sequence (Q0NZW9 1-534 R128A/F420L): T1 sequence (Q0NZW9 1-534 R128T/D133A/F420M) with T128A, A133D, M420L

Chain of recombinant wildtype and mutated PPO (Amaranthus PPO2: PPX2L_WC SEQ ID NO 2, PPX2L_AC SEQ ID NO 4, dG210 SEQ ID NO 6 & 8) (Amaranthus tuberculatus, UniProt Q0NZW9, D133A/F420I/R128H) (Q0NZW9 1-534 R128H/D133A/F420I): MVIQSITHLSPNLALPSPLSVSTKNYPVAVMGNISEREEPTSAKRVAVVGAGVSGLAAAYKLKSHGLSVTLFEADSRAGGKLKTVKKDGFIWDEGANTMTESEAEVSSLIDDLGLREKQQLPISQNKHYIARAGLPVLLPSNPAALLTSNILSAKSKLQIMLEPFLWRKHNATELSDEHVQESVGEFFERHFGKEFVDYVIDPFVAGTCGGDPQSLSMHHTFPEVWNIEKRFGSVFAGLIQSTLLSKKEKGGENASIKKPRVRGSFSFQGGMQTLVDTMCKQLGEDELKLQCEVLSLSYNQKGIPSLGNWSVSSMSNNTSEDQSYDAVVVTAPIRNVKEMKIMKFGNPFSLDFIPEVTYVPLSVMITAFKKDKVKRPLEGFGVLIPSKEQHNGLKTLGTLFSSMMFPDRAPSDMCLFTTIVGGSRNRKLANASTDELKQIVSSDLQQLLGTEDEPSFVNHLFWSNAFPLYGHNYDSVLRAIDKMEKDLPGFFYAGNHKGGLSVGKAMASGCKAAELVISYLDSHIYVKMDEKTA
Chain of recombinant wildtype and mutated PPO (Amaranthus PPO2: PPX2L_WC SEQ ID NO 2, PPX2L_AC SEQ ID NO 4, dG210 SEQ ID NO 6 & 8) (Amaranthus tuberculatus, UniProt Q0NZW9, D133A/F420V/R128H) (Q0NZW9 1-534 R128H/D133A/F420V): as the sequence (Q0NZW9 1-534 R128H/D133A/F420I) above, with I420V counted along it
Chain of recombinant wildtype and mutated PPO (Amaranthus PPO2: PPX2L_WC SEQ ID NO 2, PPX2L_AC SEQ ID NO 4, dG210 SEQ ID NO 6 & 8) (Amaranthus tuberculatus, UniProt Q0NZW9, D133A/F420M/R128G) (Q0NZW9 1-534 R128G/D133A/F420M): as the sequence (Q0NZW9 1-534 R128H/D133A/F420I) above, with H128G, I420M counted along it

SMILES | IC50 [1] [M] | IC50 [2] [M] | IC50 [3] [M] | IC50 [4] [M] | IC50 [5] [M] | IC50 [6] [nM]
C#CCN1C(=O)C(F)(F)Oc2cc(F)c(-n3c(=O)n(C)c(=S)n(C)c3=O)cc21 | 4.33e-08 | 1.26e-08 | 8.22e-08 | 6.1e-08 | 7.63e-08 | –
C#CCN1C(=O)C(F)(F)Oc2cc(F)c(-n3c(=O)cc(C(F)(F)F)n(C)c3=O)cc21 | – | – | – | – | – | 16.2
C#CCN1C(=O)C(F)(F)Oc2cc(F)c(N3C(=O)C4=C(CCCC4)C3=O)cc21 | – | – | – | – | – | 11400
COC(Oc1ccccc1Oc1cc(-n2c(=O)cc(C(F)(F)F)n(C)c2=O)c(F)cc1Cl)C(=O)OC1CCCCC1 (stereo not shown) | 1.17e-07 | 5.14e-08 | 1.31e-06 | 1.06e-08 | 9.06e-08 | 93.7
COC(=O)C(OC)Oc1ccccc1Oc1cc(-n2c(=O)cc(C(F)(F)F)n(C)c2=O)c(F)cc1Cl (stereo not shown) | 2.79e-08 | 4.76e-08 | 7.54e-08 | 1.15e-08 | 6.93e-09 | 47
